Reference: the NIST ThermoML archive (doi:10.1016/j.jct.2017.08.006)
Numbers after ± are expanded uncertainties.

Key:
[1] = Liquid; for mass density: 293.15 K, 101.33 kPa, Pycnometric method
[2] = Boiling temperature at pressure P; details: Liquid, Ebulliometric method (Recirculating still)
[3] = refractive index (Na D-line) (dimensionless); details: 101.33 kPa, Liquid, Standard Abbe refractometry

| mass density [1] | Boiling temperature at pressure P ([2]; 5.01 kPa) | Boiling temperature at pressure P ([2]; 9.98 kPa) | Boiling temperature at pressure P ([2]; 14.69 kPa) | Boiling temperature at pressure P ([2]; 19.75 kPa) | Boiling temperature at pressure P ([2]; 26.67 kPa) | Boiling temperature at pressure P ([2]; 40.02 kPa) | Boiling temperature at pressure P ([2]; 53.72 kPa) | Boiling temperature at pressure P ([2]; 65.01 kPa) | Boiling temperature at pressure P ([2]; 79.21 kPa) | Boiling temperature at pressure P ([2]; 90 kPa) | Boiling temperature at pressure P ([2]; 101.33 kPa) | Boiling temperature at pressure P ([2]; 116.34 kPa) | Boiling temperature at pressure P ([2]; 120 kPa) | Boiling temperature at pressure P ([2]; 125.01 kPa) | Boiling temperature at pressure P ([2]; 130 kPa) | refractive index ([3]; 293.15 K) | refractive index ([3]; 298.15 K) | vapor or sublimation pressure ([1]; 381.1 K, Ebulliometric method (Recirculating still)) | SMILES |
| --- | --- | --- | --- | --- | --- | --- | --- | --- | --- | --- | --- | --- | --- | --- | --- | --- | --- | --- | --- |
| 832.5 ± 1 kg/m3 | 33.5 ± 0.18 °C | 47 ± 0.16 °C | 55.23 ± 0.13 °C | 62.17 ± 0.12 °C | 69.60 ± 0.11 °C | 80.57 ± 0.11 °C | 89.19 ± 0.11 °C | 95.2 ± 0.1 °C | 101.51 ± 0.1 °C | 105.86 ± 0.1 °C | 109.98 ± 0.1 °C | 115.03 ± 0.1 °C | 116.21 ± 0.1 °C | 117.72 ± 0.1 °C | 119.27 ± 0.1 °C | 1.385 ± 0.0007 | 1.3827 ± 0.0007 | – | COCOCC(C)C [1-(methoxymethoxy)-2-methylpropane] |
| 801.8 ± 1 kg/m3 | – | – | – | – | – | – | – | – | – | – | – | – | – | – | – | – | 1.3939 ± 0.0007 | 101.33 ± 0.51 kPa | CC(C)CO [2-methyl-1-propanol] |
| 809.5 ± 1 kg/m3 | – | – | – | – | – | – | – | – | – | – | – | – | – | – | – | – | 1.3971 ± 0.0007 | – | CCCCO [butan-1-ol] |
